We go through one molecule from publication PMC4603696, “Discovery and characterization of novel small-molecule inhibitors targeting nicotinamide phosphoribosyltransferase” (Scientific Reports, 2015).

Structures are written as SMILES.

For one assay, the system named is A549 cells. The experiment in a line: SRB assay in A549. The format is cell-based, human. The method, then:
(§1) Sulfor hod am ine B p rotei n st ai ning (SRB) assay
(§2) Cell pr oliferat ion was eva lua ted by sul for hod amine B pr ot ein st aini ng (SRB) assa y10-12.
(§3) Briefly, cel ls were se ede d int o 96-well pl ates, cul tur ed overni ght , and trea ted with correspond ing com poun ds for 72 h. Cells were the n fixe d with 10% trichl or oa cetic aci d and st ained with sul for hoda mine B (Sigm a). Sul for hoda mine B in the cells was di sso lved in 10 mmol/L Tris-HCl and was measured at 515 nm usi ng a multiw ell spect ropho tometer (VERSA max, Mol ecul ar Devi ces, Sunnyva le, CA). The inhi bi tion rat e on cell pr olif eratio n was cal culated for each well as (A515contr ol cells-A 515tr eated cells)/A515contr ol cells×100 % (A515:
(§4) OD va lue at 515 nm ). The averag e IC50 va lue s were de termine d by Logit method from at leas t t hr eei nde pe nde nt test s.
For orientation: The SRB assay estimates cell density from bound dye.

For a further assay, the system named is NAD level of HepG2 cells. The experiment in a line: Cellular NAD level, spectrophotometric enzymatic cycling assay. The format is cell-based, human. The source says:
F0 was the average d fluo rescen ce of si x backgr ound control s, repres ent ing zero activ ity from a si mul ated enz ym e reaction wit h on ly NAMP T but no NAM and com pound; F100 % was the average d fluorescen ce of si x ref erence cont rols, repr ese nt ing 100% activ ity from int act enz ym e reaction w ithou t com pound p ert ur bation.
Compounds with Activ ity% less tha n 40% were consi dered as inhi bi tor s and subj ect ed to a secondary screen inhi bition valida tion, in whi ch anot her backgr oun d cont rol (FC0), a si mul ated enz ym e reaction with NAMP Tand com pound but no NAM, was int roduced to elimina te the di rec t and /or ind irect inf lue nc e fro m compou nd. At thi s st age , the Activ ity% was cal culated accor ding t o e qua tion ( 2) :
In the screeni ng, the si gna l-to- noi se (S/N) rat io was cal cul ated usi ng the equa tion: (Mean signal -Mean backgr oun d) / SD backgr oun d4. Coe fficient s of vari atio n (CV) were the ratio of SD to mean. The Z ’f act or w as de term ine d by e qua tion (3) 5:
Z' −= (3)1−3(S Dhi ghsigna l+SDlowsigna l)
Mean hi gh signa l Meanlow signa l
Determ inat ion of IC50 for NAMPT inhi bitor s […]
vari ous con cent ration s were adde d int o 96-well pl ate. The pl ate was inc uba ted at 37 °C for 5 min after addition of 16.5 μl react ion buf fer cont aini ng N AMP T. The enz ym e reactions were ini tiated by 4.5 μl NAM (1.1 1 μM) follow ing NMN measurem ent as de scri bed above . […]
Cellul ar level of NAD was measured by spe ctrophot om etric enz ym atic cyc ling assa y, as de scri bed pr evi ousl y6-8. […]
Cell vi ability was de termine d by ou r previ ous method9 usi ng the Cell Counting Kit-8 (CCK -8, Dojindo, Ja pa n). […] Th e absor banc e at 450 nm (A450) was de tected by a pl ate reade r. […]
Briefly, cel ls were se ede d int o 96-well pl ates, cul tur ed overni ght , and trea ted with correspond ing com poun ds for 72 h. […] Sul for hoda mine B in the cells was di sso lved in 10 mmol/L Tris-HCl and was measured at 515 nm usi ng a multiw ell spect ropho tometer […]

Another assay relates to HCT116 cells. The assay can be described thus: SRB assay in HCT116. The format is cell-based. To be noted: Homo sapiens, HCT-116, read-out: anti-proliferation IC50, initial screen. The method, then: as §1, §2, §3, §4
The next assay has as its system HepG2 cells. The assay can be described thus: Cell counting kit-8 (CCK-8) cell viability assay in HepG2. The format is cell-based, human. Here is the method: Cellc ount ing k it-8 (CCK-8) assa y
Cell vi ability was de termine d by ou r previ ous method9 usi ng the Cell Counting Kit-8 (CCK -8, Dojindo, Ja pa n). In hu man he pa tocellu lar carcinom a cell line HepG 2, cells were seede d in 96-well plate and starve d for ove r 12 h with se rum-free DMEM at 60~ 70% conf lue nc y, the n trea ted wit h com pounds or ve hicle for 24 h to 72 h accor ding to expe riment requi rement s. […]
10 μl CCK-8 sol ution was adde d to the cul ture medium and inc ub ated at 37 °C for 1 h. Th e absor banc e at 450 nm (A450) was de tected by a pl ate reade r. Each e xperi ment w as carr ied out i n t riplic ate i n thr ee r eplic ate w ells.
On the technique in general: Tetrazolium dyes change colour on reduction, which living cells bring about.

For the molecule `O=S(=O)(c1ccc(NC(=S)NCc2cccnc2)cc1)N1CCCCC1` [MS0], the “growth inhibition (SRB, in words)” value in the assay on A549 cells (A549, 72 hours) is given as “potent growth inhibition”. The IC50 with A549 cells (Homo sapiens, A549, read-out: anti-proliferation IC50, initial screen) was below 5000 nM; in the assay on NAD level of HepG2 cells (Homo sapiens, HepG2, 24 hours treatment, read-out: IC50 for reducing NAD level), 93.7 nM; with HCT116 cells, below 5000 nM; in the assay with HepG2 cells (Homo sapiens, HepG2, 48 h, read-out: CCK-8 assay in HepG2: IC50) it was 703 ± 95.4 nM. Besides, the “decrease of cellular NAD level” value in the assay on NAD level of HepG2 cells (HepG2, 1 μM, 24 hours) is ~ 70%. In the assay on HepG2 cells (HepG2, 10 μM, treatment for ≥36 hours), the “cell viability (CCK-8), time course” value was “markedly inhibited”. Also, the “cell viability (CCK-8)” value with HepG2 cells (HepG2, 24 hours, up to 10 μM) was “almost had no changes”.
